Data reported in patent publication US10800792B2, “Inhibitors of Bruton's tyrosine kinase and method of their use” (JANSSEN PHARMACEUTICA NV, priority 2015, dated 2020).

Target: unphosphorylated-BTK kinase domain (UP-BTK), GST-tagged human BTK (389-659aa) (Homo sapiens (Human), UniProt Q06187)
Assay: BTK kinase Lanthascreen binding assay
Conditions: unphosphorylated-BTK kinase domain, 60 minutes incubation, 50 nM Tracer 236; pIC50 = negative log of the IC50 in molar
In short: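 Measures how well compounds compete with a fluorescence-labelled tracer for binding to BTK in its unphosphorylated state. IC50 values were fitted and expressed as pIC50 (negative logarithm of the molar IC50).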

Chain of unphosphorylated-BTK kinase domain (UP-BTK), GST-tagged human BTK (389-659aa) (Q06187 389-659): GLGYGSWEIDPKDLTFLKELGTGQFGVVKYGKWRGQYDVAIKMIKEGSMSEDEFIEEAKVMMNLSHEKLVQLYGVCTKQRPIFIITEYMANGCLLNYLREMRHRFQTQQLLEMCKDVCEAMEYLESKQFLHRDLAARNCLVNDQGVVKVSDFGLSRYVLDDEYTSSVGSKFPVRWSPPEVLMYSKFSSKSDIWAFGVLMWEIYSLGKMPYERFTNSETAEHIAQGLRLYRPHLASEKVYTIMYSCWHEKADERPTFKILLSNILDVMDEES

Row | BTK_I_binding pIC50 | Compound
1 | 6.1 | O=C(NCCN1CCCCC1)c1sc2nccc3c2c1NC(=O)N3c1ccc(Oc2ccccc2)cc1 [Example 932, 4-Oxo-5-(4-phenoxyphenyl)-N-(2-(piperidin-1-yl)ethyl)-4,5-dihydro-3H-1-thia-3,5,8-triazaacenaphthylene-2-carboxamide]
2 | 6.1 | O=C(NCCN1CCOCC1)c1sc2nccc3c2c1NC(=O)N3c1ccc(Oc2ccccc2)cc1 [Example 933, N-(2-Morpholinoethyl)-4-oxo-5-(4-phenoxyphenyl)-4,5-dihydro-3H-1-thia-3,5,8-triazaacenaphthylene-2-carboxamide]
3 | 6.0 | CN1CCN(CCNC(=O)c2sc3nccc4c3c2NC(=O)N4c2ccc(Oc3ccccc3)cc2)CC1 [Example 935, N-(2-(4-Methylpiperazin-1-yl)ethyl)-4-oxo-5-(4-phenoxyphenyl)-4,5-dihydro-3H-1-thia-3,5,8-triazaacenaphthylene-2-carboxamide]
4 | <6 | CC(=O)N1CCC[C@@H](NC(=O)c2sc3nccc4c3c2NC(=O)N4c2ccc(OC(C)C)cc2C)C1 [Example 936, (R)—N-(1-Acetylpiperidin-3-yl)-5-(4-isopropoxy-2-methylphenyl)-4-oxo-4,5-dihydro-3H-1-thia-3,5,8-triazaacenaphthylene-2-carboxamide]
5 | 6.0 | O=C(N[C@@H]1CCCNC1)c1sc2nccc3c2c1NC(=O)N3c1cccc(-c2cccnc2)c1 [Example 937, (R)-4-Oxo-N-(piperidin-3-yl)-5-(3-(pyridin-3-yl)phenyl)-4,5-dihydro-3H-1-thia-3,5,8-triazaacenaphthylene-2-carboxamide]
6 | 6.0 | Cc1ccc(Oc2ccccc2)cc1N1C(=O)Nc2c(C(=O)N[C@H]3CCCN(C(=O)/C(C#N)=C/C4CC4)C3)sc3nccc1c23 [Example 938, (S,E)-N-(1-(2-Cyano-3-cyclopropylacryloyl)piperidin-3-yl)-5-(2-methyl-5-phenoxyphenyl)-4-oxo-4,5-dihydro-3H-1-thia-3,5,8-triazaacenaphthylene-2-carboxamide]
7 | 6.0 | N#C/C(=C\C1CC1)C(=O)N1CCC[C@H](NC(=O)c2sc3nccc4c3c2NC(=O)N4c2cccc(Oc3ccccc3)c2)C1 [Example 939, (S,E)-N-(1-(2-Cyano-3-cyclopropylacryloyl)piperidin-3-yl)-4-oxo-5-(3-phenoxyphenyl)-4,5-dihydro-3H-1-thia-3,5,8-triazaacenaphthylene-2-carboxamide]
8 | 5.9 | O=C(N[C@H]1CCN(C(=O)c2ccccc2)C1)c1sc2nccc3c2c1NC(=O)N3c1ccc(Oc2ccccc2)cc1 [Example 940, (S)—N-(1-benzoylpyrrolidin-3-yl)-4-oxo-5-(4-phenoxyphenyl)-4,5-dihydro-3H-1-thia-3,5,8-triazaacenaphthylene-2-carboxamide]
9 | 5.8 | C=CC(=O)N1CCC[C@@H](NC(=O)c2sc3nccc4c3c2NC(=O)N4c2cc(Cl)cc(Cl)c2)C1 [Example 941, (R)—N-(1-Acryloylpiperidin-3-yl)-5-(3,5-dichlorophenyl)-4-oxo-4,5-dihydro-3H-1-thia-3,5,8-triazaacenaphthylene-2-carboxamide]
10 | 5.6 | Cc1ccccc1N1C(=O)Nc2c(C(=O)N[C@H]3CCCN(C(=O)/C(C#N)=C/C4CC4)C3)sc3nccc1c23 [Example 942, (S,E)-N-(1-(2-Cyano-3-cyclopropylacryloyl)piperidin-3-yl)-4-oxo-5-(o-tolyl)-4,5-dihydro-3H-1-thia-3,5,8-triazaacenaphthylene-2-carboxamide]
11 | 5.6 | C=CC(=O)N1CCC[C@@H](NC(=O)c2sc3nccc4c3c2NC(=O)N4c2cccc(N(C)C)c2)C1 [Example 943, (R)—N-(1-Acryloylpiperidin-3-yl)-5-(3-(dimethylamino)phenyl)-4-oxo-4,5-dihydro-3H-1-thia-3,5,8-triazaacenaphthylene-2-carboxamide]
12 | 5.6 | Cc1cc(Oc2ccccc2)ccc1N1C(=O)Nc2c(C(=O)NC3CCN(C(=O)CC#N)CC3)sc3nccc1c23 [Example 944, N-(1-(2-Cyanoacetyl)piperidin-4-yl)-5-(2-methyl-4-phenoxyphenyl)-4-oxo-4,5-dihydro-3H-1-thia-3,5,8-triazaacenaphthylene-2-carboxamide]
13 | 5.5 | O=C(N[C@H]1CCN(Cc2ccccc2)C1)c1sc2nccc3c2c1NC(=O)N3c1ccc(Oc2ccccc2)cc1 [Example 945, (S)—N-(1-Benzylpyrrolidin-3-yl)-4-oxo-5-(4-phenoxyphenyl)-4,5-dihydro-3H-1-thia-3,5,8-triazaacenaphthylene-2-carboxamide]
14 | 5.4 | COc1ccc(N2C(=O)Nc3c(C(=O)N[C@H]4CCCN(C(=O)/C(C#N)=C/C5CC5)C4)sc4nccc2c34)c(C)c1 [Example 946, (S,E)-N-(1-(2-Cyano-3-cyclopropylacryloyl)piperidin-3-yl)-5-(4-methoxy-2-methylphenyl)-4-oxo-4,5-dihydro-3H-1-thia-3,5,8-triazaacenaphthylene-2-carboxamide]
15 | 5.4 | CCC(=O)N1CCC(NC(=O)c2sc3nccc4c3c2NC(=O)N4c2ccc(Oc3ccccc3)cc2C)CC1 [Example 947, 5-(2-Methyl-4-phenoxyphenyl)-4-oxo-N-(1-propionylpiperidin-4-yl)-4,5-dihydro-3H-1-thia-3,5,8-triazaacenaphthylene-2-carboxamide]
16 | 5.2 | C=CC(=O)N1CCC[C@@H](NC(=O)c2sc3nccc4c3c2NC(=O)N4c2ccc(N)cc2)C1 [Example 948, (R)—N-(1-Acryloylpiperidin-3-yl)-5-(4-aminophenyl)-4-oxo-4,5-dihydro-3H-1-thia-3,5,8-triazaacenaphthylene-2-carboxamide]
17 | 5.2 | CN(C)c1ccc(N2C(=O)Nc3c(C(=O)N[C@@H]4CCCNC4)sc4nccc2c34)cc1 [Example 949, (R)-5-(4-(Dimethylamino)phenyl)-4-oxo-N-(piperidin-3-yl)-4,5-dihydro-3H-1-thia-3,5,8-triazaacenaphthylene-2-carboxamide]
18 | 5.1 | Cc1cccc(N2C(=O)Nc3c(C(=O)N[C@@H]4CCCNC4)sc4nccc2c34)c1 [Example 950, (R)-4-Oxo-N-(piperidin-3-yl)-5-(m-tolyl)-4,5-dihydro-3H-1-thia-3,5,8-triazaacenaphthylene-2-carboxamide]
19 | 5.1 | O=C(N[C@@H]1CCCNC1)c1sc2nccc3c2c1NC(=O)N3c1ccc(Cl)cc1 [Example 951, (R)-5-(4-Chlorophenyl)-4-oxo-N-(piperidin-3-yl)-4,5-dihydro-3H-1-thia-3,5,8-triazaacenaphthylene-2-carboxamide]
20 | 5.1 | Cc1ccc(N2C(=O)Nc3c(C(=O)N[C@@H]4CCCNC4)sc4nccc2c34)cc1 [Example 952, (R)-4-Oxo-N-(piperidin-3-yl)-5-(p-tolyl)-4,5-dihydro-3H-1-thia-3,5,8-triazaacenaphthylene-2-carboxamide]
21 | 5.1 | O=C(N[C@@H]1CCCNC1)c1sc2nccc3c2c1NC(=O)N3c1ccc(F)cc1 [Example 953, (R)-5-(4-Fluorophenyl)-4-oxo-N-(piperidin-3-yl)-4,5-dihydro-3H-1-thia-3,5,8-triazaacenaphthylene-2-carboxamide]
22 | 5.0 | CC(C)(C)c1ccc(N2C(=O)Nc3c(C(=O)N[C@@H]4CCCNC4)sc4nccc2c34)cc1 [Example 954, (R)-5-(4-(tert-Butyl)phenyl)-4-oxo-N-(piperidin-3-yl)-4,5-dihydro-3H-1-thia-3,5,8-triazaacenaphthylene-2-carboxamide]
23 | <5 | Cc1cc(N2C(=O)Nc3c(C(=O)N[C@@H]4CCCNC4)sc4nccc2c34)ccc1OC(C)C [Example 955, (R)-5-(4-Isopropoxy-3-methylphenyl)-4-oxo-N-(piperidin-3-yl)-4,5-dihydro-3H-1-thia-3,5,8-triazaacenaphthylene-2-carboxamide]
24 | <5 | Nc1ccc(N2C(=O)Nc3c(C(=O)N[C@@H]4CCCNC4)sc4nccc2c34)cc1 [Example 956, (R)-5-(4-Aminophenyl)-4-oxo-N-(piperidin-3-yl)-4,5-dihydro-3H-1-thia-3,5,8-triazaacenaphthylene-2-carboxamide]
25 | <5 | Cc1c(Oc2ccccc2)cccc1N1C(=O)Nc2c(C(=O)N[C@H]3CCCN(C(=O)/C(C#N)=C/C4CC4)C3)sc3nccc1c23 [Example 957, (S,E)-N-(1-(2-Cyano-3-cyclopropylacryloyl)piperidin-3-yl)-5-(2-methyl-3-phenoxyphenyl)-4-oxo-4,5-dihydro-3H-1-thia-3,5,8-triazaacenaphthylene-2-carboxamide]
26 | 5.6 | C=CC(=O)N1CC[C@@H](NC(=O)c2sc3nccc4c3c2NC(=O)N4c2ccc(Oc3cccnn3)nc2C)C1 [Example 974, (R)—N-(1-Acryloylpyrrolidin-3-yl)-5-(2-methyl-6-(pyridazin-3-yloxy)pyridin-3-yl)-4-oxo-4,5-dihydro-3H-1-thia-3,5,8-triazaacenaphthylene-2-carboxamide]
27 | 5.0 | C=CC(=O)N1CCC[C@@H](NC(=O)c2sc3nccc4c3c2NC(=O)N4c2ccc(Oc3cccnn3)nc2C)C1 [Example 975, (R)—N-(1-Acryloylpiperidin-3-yl)-5-(2-methyl-6-(pyridazin-3-yloxy)pyridin-3-yl)-4-oxo-4,5-dihydro-3H-1-thia-3,5,8-triazaacenaphthylene-2-carboxamide]
